Laboratory results taken from patent US5548064A, “Vitamin B12 conjugates with EPO, analogues thereof and pharmaceutical compositions” (Biotech Australia Pty Limited, priority 1993, dated 1996).

Biological target: intrinsic factor (IF) (Homo sapiens, UniProt P27352)
Assay: Relative intrinsic factor (IF) affinity of eVB12 analogues and complexes
Assay type: binding
Excerpt: IF Affinity is expressed as a percentage of the affinity of the eVB12 derivative relative to native, unmodified VB12.

[1] = percentage of the affinity of the eVB12 derivative relative to native, unmodified VB12

Sequence of intrinsic factor (IF) (P27352 19-417, species assumed): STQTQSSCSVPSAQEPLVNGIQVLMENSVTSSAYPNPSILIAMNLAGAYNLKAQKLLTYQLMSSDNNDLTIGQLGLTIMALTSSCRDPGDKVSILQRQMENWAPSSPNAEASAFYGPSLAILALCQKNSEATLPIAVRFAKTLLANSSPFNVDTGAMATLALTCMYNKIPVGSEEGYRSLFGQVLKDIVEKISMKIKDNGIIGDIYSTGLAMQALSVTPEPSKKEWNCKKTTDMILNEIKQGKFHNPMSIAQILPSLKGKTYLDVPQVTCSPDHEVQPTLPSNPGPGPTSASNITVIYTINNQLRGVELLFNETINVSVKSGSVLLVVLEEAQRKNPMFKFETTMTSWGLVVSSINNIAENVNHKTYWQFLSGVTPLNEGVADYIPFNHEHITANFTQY

Molecule	IF Affinity [1]	IF Affinity (% of native eVB12)
eVB12 carboxylate	35%	
dithlopropionamido[2-aminoethylamido]-eVB12	6%	
EPO-acyl[adipyldlhydrazidyl]-eVB12	11%	
dithiopropionamido[6-aminohexylamido]-eVB12	7%	
dithioproplonamido[6-aminohexylamido]-eVB12	11%	
GCSF-dithioproplonamido[12-aminododecylamido]-eVB12 (conjugate, UniProt P09919 31-207, looked up, disulphide-linked aminododecyl vitamin B12 conjugate, GCSF linked by disulphide at Cys-17 to DTP-aminododecyl-eVB12 (section 1.7)) Granulocyte …: TPLGPASSLPQSFLLKCLEQVRKIQGDGAALQEKLVSECATYKLCHPEELVLLGHSLGIPWAPLSSCPSQALQLAGCLSQLHSGLFLYQGLLQALEGISPELGPTLDTLQLDVADFATTIWQQMEELGMAPALQPTQGAMPAFASAFQRRAGGVLVASHLQSFLEVSYRVLRHLAQP	3%	2-3%
GCSF-diothloproplonamido12-aminododecyl-suberyl-hexylamido-eVB12 (conjugate, UniProt P09919 31-207, looked up, disulphide-linked dodecylsuberylhexyl vitamin B12 conjugate, GCSF linked by disulphide to DTP-dodecylsuberylhexyl-eVB12 (section 1.9)) Granulocyte …: TPLGPASSLPQSFLLKCLEQVRKIQGDGAALQEKLVSECATYKLCHPEELVLLGHSLGIPWAPLSSCPSQALQLAGCLSQLHSGLFLYQGLLQALEGISPELGPTLDTLQLDVADFATTIWQQMEELGMAPALQPTQGAMPAFASAFQRRAGGVLVASHLQSFLEVSYRVLRHLAQP	28%	
GCSF-acylhydrazidyl-eVB12 (conjugate, UniProt P09919 31-207, looked up, hydrazide vitamin B12 conjugate, EDAC-mediated conjugate of hydrazido-eVB12 with carboxyl groups of GCSF (section 1.11)) Granulocyte …: TPLGPASSLPQSFLLKCLEQVRKIQGDGAALQEKLVSECATYKLCHPEELVLLGHSLGIPWAPLSSCPSQALQLAGCLSQLHSGLFLYQGLLQALEGISPELGPTLDTLQLDVADFATTIWQQMEELGMAPALQPTQGAMPAFASAFQRRAGGVLVASHLQSFLEVSYRVLRHLAQP	10%	
GCSF-acyl[adipyldihydrazidyl]-eVB12 (conjugate, UniProt P09919 31-207, looked up, adipyl-dihydrazide vitamin B12 conjugate, EDAC-mediated conjugate of adipylhydrazido-eVB12 with GCSF (section 1.12)) Granulocyte …: TPLGPASSLPQSFLLKCLEQVRKIQGDGAALQEKLVSECATYKLCHPEELVLLGHSLGIPWAPLSSCPSQALQLAGCLSQLHSGLFLYQGLLQALEGISPELGPTLDTLQLDVADFATTIWQQMEELGMAPALQPTQGAMPAFASAFQRRAGGVLVASHLQSFLEVSYRVLRHLAQP	7%	

The remaining lines, values ahead:

IF Affinity [1]	IF Affinity (% of native eVB12)	Molecule
44%		adipyldihydrazidyl-eVB12
100%		hydrazidyl-eVB12
48%		2-aminoethylamido-eVB12
6%		EPO-acylhydrazidyl-eVB12
74%		12-aminododecylamido-eVB12
91%		6-aminohexylamido-eVB12
82%		12-aminododecyl-suberyl-hexylamido-eVB12
